From patent publication US8404679B2, “Pyrrolidine derivatives as NK2 receptor antagonists” (Hoffmann-La Roche Inc., priority 2008, dated 2013)
pKi: −log10 of the molar value.

biological target: T1, human NK2 receptor (Homo sapiens, UniProt P21452); assay: [3H]SR48968 competition binding assay; conditions: [3H]SR48968 displacement, membranes of CHO cells stably expressing recombinant human NK2 receptor; Ki from IC50 by Cheng-Prussoff
T1 construct: purchased Perkin Elmer biosignal Inc. 6110510
T1 sequence (P21452 1-398): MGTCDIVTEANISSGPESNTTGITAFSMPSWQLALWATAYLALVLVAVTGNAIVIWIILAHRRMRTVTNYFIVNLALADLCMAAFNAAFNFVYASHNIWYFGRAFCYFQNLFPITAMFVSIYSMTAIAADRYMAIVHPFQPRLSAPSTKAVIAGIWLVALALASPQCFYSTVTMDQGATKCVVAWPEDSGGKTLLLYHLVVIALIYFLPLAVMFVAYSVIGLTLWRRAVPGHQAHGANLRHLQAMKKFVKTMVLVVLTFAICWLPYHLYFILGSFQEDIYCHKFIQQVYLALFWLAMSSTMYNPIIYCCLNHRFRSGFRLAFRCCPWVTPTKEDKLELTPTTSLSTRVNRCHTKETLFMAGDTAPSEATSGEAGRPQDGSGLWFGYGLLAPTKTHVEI
How it was run: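 Membranes from CHO cells stably expressing recombinant human NK2 were incubated 75 min at RT with [3H]SR48968 at its KD and 10 compound concentrations (0.0003–10 μM) in Tris-HCl pH 7.4, MnCl2, chymostatin, BSA. Filter-bound radioactivity was counted; Hill-fitted IC50 converted to Ki via Cheng-Prusoff.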

Row | SMILES | pKi
1 | CN(C(=O)CCc1ccc(F)cc1)[C@H]1CN(C(=O)C2CCN(C(=O)C3(C)CC3)CC2)C[C@@H]1c1ccc(Cl)c(Cl)c1 (racemic) [Example 102, N-{(3RS,4SR)-4-(3,4-Dichloro-phenyl)-1-[1-(1-methyl-cyclopropanecarbonyl)-piperidine-4-carbonyl]-pyrrolidin-3-yl}-3-(4-fluoro-phenyl)-N-methyl-propionamide] | 8.62
2 | COc1ccc(C(=O)N(C)[C@@H]2CN(C(=O)N3CCN(S(C)(=O)=O)CC3)C[C@H]2c2ccc(Cl)c(Cl)c2)cc1C(F)(F)F (racemic) [Example 8, rac-N-[(3S,4R)-4-(3,4-Dichloro-phenyl)-1-(4-methanesulfonyl-piperazine-1-carbonyl)-pyrrolidin-3-yl]-4-methoxy-N-methyl-3-trifluoromethyl-benzamide] | 8.63
3 | COc1ccc(C(=O)N(C)[C@H]2CN(C(=O)C3CCN(C(C)C)CC3)C[C@@H]2c2ccc(Cl)cc2)cc1C(F)(F)F (racemic) [Example 104, N-[(3RS,4SR)-4-(4-Chloro-phenyl)-1-(1-isopropyl-piperidine-4-carbonyl)-pyrrolidin-3-yl]-4-methoxy-N-methyl-3-trifluoromethyl-benzamide] | 8.39
4 | COc1ccc(C(=O)N[C@H]2CN(C(=O)C3CCN(C(=O)C4(C)CC4)CC3)C[C@@H]2c2ccc(Cl)cc2C)cc1C(F)(F)F (racemic) [Example 122, N-{(3RS,4SR)-4-(4-Chloro-2-methyl-phenyl)-1-[1-(1-methyl-cyclopropanecarbonyl)-piperidine-4-carbonyl]-pyrrolidin-3-yl}-4-methoxy-3-trifluoromethyl-benzamide] | 7.09
5 | CN(C(=O)c1ccc(Cl)nc1)[C@@H]1CN(C(=O)c2ccc(C#N)cc2)C[C@H]1c1ccc(Cl)c(Cl)c1 (racemic) [Example 78, rac-6-Chloro-N-[(3S,4R)-1-(4-cyano-benzoyl)-4-(3,4-dichloro-phenyl)-pyrrolidin-3-yl]-N-methyl-nicotinamide] | 8.11
6 | CN(C(=O)c1ccc(-n2cccc2)cc1)[C@@H]1CN(C(=O)N2CCN(S(C)(=O)=O)CC2)C[C@H]1c1ccc(Cl)c(Cl)c1 (racemic) [Example 30, rac-N-[(3S,4R)-4-(3,4-Dichloro-phenyl)-1-(4-methanesulfonyl-piperazine-1-carbonyl)-pyrrolidin-3-yl]-N-methyl-4-pyrrol-1-yl-benzamide] | 8.34
7 | Cc1cc(C(=O)N(C)[C@@H]2CN(C(=O)N3CCN(S(C)(=O)=O)CC3)C[C@H]2c2ccc(Cl)c(Cl)c2)ccc1F (racemic) [Example 25, rac-N-[(3S,4R)-4-(3,4-Dichloro-phenyl)-1-(4-methanesulfonyl-piperazine-1-carbonyl)-pyrrolidin-3-yl]-4-fluoro-3,N-dimethyl-benzamide] | 8.22
8 | CN(C(=O)c1ccc(F)cc1)[C@@H]1CN(C(=O)N2CCN(S(C)(=O)=O)CC2)C[C@H]1c1ccc(Cl)c(Cl)c1 (racemic) [Example 10, rac-N-[(3S,4R)-4-(3,4-Dichloro-phenyl)-1-(4-methanesulfonyl-piperazine-1-carbonyl)-pyrrolidin-3-yl]-4-fluoro-N-methyl-benzamide] | 7.54
9 | Cc1ccc(C(=O)N(C)[C@@H]2CN(C(=O)c3ccc(C#N)cc3)C[C@H]2c2ccc(Cl)c(Cl)c2)cn1 (racemic) [Example 77, rac-N-[(3S,4R)-1-(4-Cyano-benzoyl)-4-(3,4-dichloro-phenyl)-pyrrolidin-3-yl]-6,N-dimethyl-nicotinamide] | 7.54
10 | CN(C(=O)c1cc(Cl)ccn1)[C@@H]1CN(C(=O)c2ccc(C#N)cc2)C[C@H]1c1ccc(Cl)c(Cl)c1 (racemic) [Example 59, rac-4-Chloro-pyridine-2-carboxylic acid [(3S,4R)-1-(4-cyano-benzoyl)-4-(3,4-dichloro-phenyl)-pyrrolidin-3-yl]-methyl-amide] | 7.89
11 | CN(C(=O)CC1CCCC1)[C@H]1CN(C(=O)C2CCN(CC3CC3)CC2)C[C@@H]1c1ccc(Cl)c(Cl)c1 (racemic) [Example 151, 2-Cyclopentyl-N-[(3RS,4SR)-1-(1-cyclopropylmethyl-piperidine-4-carbonyl)-4-(3,4-dichloro-phenyl)-pyrrolidin-3-yl]-N-methyl-acetamide] | 8.17
12 | COc1ccc(C(=O)N(C)[C@H]2CN(C(=O)C3CCN(C(=O)OC(C)(C)C)CC3)C[C@@H]2c2ccc(Cl)cc2)cc1C(F)(F)F (racemic) [Example 95, 4-{(3SR,4RS)-3-(4-Chloro-phenyl)-4-[(4-methoxy-3-trifluoromethyl-benzoyl)-methyl-amino]-pyrrolidine-1-carbonyl}-piperidine-1-carboxylic acid tert-butyl ester] | 8.66

Now those with a higher pKi, led by results:

Row | pKi | SMILES
13 | 9.15 | CCS(=O)(=O)N1CCC(C(=O)N2C[C@H](c3ccc(Cl)c(Cl)c3)[C@@H](N(C)C(=O)c3ccc(OC)c(C(F)(F)F)c3)C2)CC1 (racemic) [Example 140, N-[(3RS,4SR)-4-(3,4-Dichloro-phenyl)-1-(1-ethanesulfonyl-piperidine-4-carbonyl)-pyrrolidin-3-yl]-4-methoxy-N-methyl-3-trifluoromethyl-benzamide]
14 | 9.10 | CN(C(=O)c1ccc(F)c(C#N)c1)[C@H]1CN(C(=O)C2CCN(C(=O)C3(C)CC3)CC2)C[C@@H]1c1ccc(Cl)c(Cl)c1 (racemic) [Example 109, 3-Cyano-N-{(3RS,4SR)-4-(3,4-dichloro-phenyl)-1-[1-(1-methyl-cyclopropanecarbonyl)-piperidine-4-carbonyl]-pyrrolidin-3-yl}-4-fluoro-N-methyl-benzamide]
15 | 8.89 | COc1ccc(C(=O)N(C)[C@H]2CN(C(=O)C3CCN(C(=O)OC(C)(C)C)CC3)C[C@@H]2c2ccc(Cl)c(Cl)c2)cc1C(F)(F)F (racemic) [Example 132, 4-{(3SR,4RS)-3-(3,4-Dichloro-phenyl)-4-[(4-methoxy-3-trifluoromethyl-benzoyl)-methyl-amino]-pyrrolidine-1-carbonyl}-piperidine-1-carboxylic acid tert-butyl ester]
16 | 9.05 | COc1ccc(C(=O)N(C)[C@H]2CN(C(=O)C3CCN(CCCSC)CC3)C[C@@H]2c2ccc(Cl)cc2)cc1C(F)(F)F (racemic) [Example 126, N-{(3RS,4SR)-4-(4-Chloro-phenyl)-1-[1-(3-methylsulfanyl-propyl)-piperidine-4-carbonyl]-pyrrolidin-3-yl}-4-methoxy-N-methyl-3-trifluoromethyl-benzamide]
17 | 9.30 | CN(C(=O)c1ccc(Cl)c(C(F)(F)F)c1)[C@H]1CN(C(=O)C2CCN(CC3CC3)CC2)C[C@@H]1c1ccc(Cl)c(Cl)c1 (racemic) [Example 164, 4-Chloro-N-[(3RS,4SR)-1-(1-cyclopropylmethyl-piperidine-4-carbonyl)-4-(3,4-dichloro-phenyl)-pyrrolidin-3-yl]-N-methyl-3-trifluoromethyl-benzamide]
18 | 8.85 | COc1ccc(C(=O)N(C)[C@@H]2CN(C(=O)N3CCN(S(C)(=O)=O)[C@@H](C)C3)C[C@H]2c2ccc(Cl)c(Cl)c2)cc1C(F)(F)F [Example 42]
19 | 8.76 | CN(C)c1ccc(C(=O)N(C)[C@@H]2CN(C(=O)N3CCN(S(C)(=O)=O)CC3)C[C@H]2c2ccc(Cl)c(Cl)c2)cc1 (racemic) [Example 24, rac-N-[(3S,4R)-4-(3,4-Dichloro-phenyl)-1-(4-methanesulfonyl-piperazine-1-carbonyl)-pyrrolidin-3-yl]-4-dimethylamino-N-methyl-benzamide]
